From article PMC10897480, “Molecular details of ruthenium red pore block in TRPV channels” (EMBO Reports, 2024)

Key:
[1] = biological target: T1, TRPV2 (Rattus norvegicus, UniProt Q9WUD2); experiment: cryo-EM structure ([…] Å, with RR); activates whole-cell currents at […]
T1 construct: wild-type rat TRPV2, C-terminal 1D4 tag, in nanodiscs
T1 sequence (Q9WUD2 1-761): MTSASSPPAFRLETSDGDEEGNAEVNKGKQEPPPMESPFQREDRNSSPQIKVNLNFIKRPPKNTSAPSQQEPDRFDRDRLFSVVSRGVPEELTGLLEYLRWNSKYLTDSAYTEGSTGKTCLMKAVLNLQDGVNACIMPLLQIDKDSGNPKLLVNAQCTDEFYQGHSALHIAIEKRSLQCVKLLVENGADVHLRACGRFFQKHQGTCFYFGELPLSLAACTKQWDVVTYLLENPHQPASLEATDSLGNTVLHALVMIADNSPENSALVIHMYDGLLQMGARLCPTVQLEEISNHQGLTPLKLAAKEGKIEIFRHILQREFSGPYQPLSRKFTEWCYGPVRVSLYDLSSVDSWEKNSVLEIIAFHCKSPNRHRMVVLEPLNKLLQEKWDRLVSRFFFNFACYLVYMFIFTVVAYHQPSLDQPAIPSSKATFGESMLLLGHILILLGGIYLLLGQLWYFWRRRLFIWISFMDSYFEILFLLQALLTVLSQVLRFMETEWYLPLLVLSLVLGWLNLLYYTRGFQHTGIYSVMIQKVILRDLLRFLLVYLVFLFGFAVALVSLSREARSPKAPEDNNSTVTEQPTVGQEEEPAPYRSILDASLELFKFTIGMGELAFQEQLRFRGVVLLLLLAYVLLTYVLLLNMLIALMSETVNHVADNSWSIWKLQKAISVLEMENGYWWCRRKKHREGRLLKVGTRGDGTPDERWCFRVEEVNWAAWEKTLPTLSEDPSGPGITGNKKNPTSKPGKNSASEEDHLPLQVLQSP

[2] = biological target: T2, TRPV5 (Oryctolagus cuniculus, UniProt Q9XSM3); experiment: cryo-EM structures (8FFQ with PI([…])P2 added, […] Å; 8FFN without, […] Å); IC50 from whole-cell patch clamp in HEK293 cells; format: cell-based
T2 construct: wild-type rabbit TRPV5, C-terminal 1D4 tag, in nanodiscs
T2 sequence (Q9XSM3 1-730): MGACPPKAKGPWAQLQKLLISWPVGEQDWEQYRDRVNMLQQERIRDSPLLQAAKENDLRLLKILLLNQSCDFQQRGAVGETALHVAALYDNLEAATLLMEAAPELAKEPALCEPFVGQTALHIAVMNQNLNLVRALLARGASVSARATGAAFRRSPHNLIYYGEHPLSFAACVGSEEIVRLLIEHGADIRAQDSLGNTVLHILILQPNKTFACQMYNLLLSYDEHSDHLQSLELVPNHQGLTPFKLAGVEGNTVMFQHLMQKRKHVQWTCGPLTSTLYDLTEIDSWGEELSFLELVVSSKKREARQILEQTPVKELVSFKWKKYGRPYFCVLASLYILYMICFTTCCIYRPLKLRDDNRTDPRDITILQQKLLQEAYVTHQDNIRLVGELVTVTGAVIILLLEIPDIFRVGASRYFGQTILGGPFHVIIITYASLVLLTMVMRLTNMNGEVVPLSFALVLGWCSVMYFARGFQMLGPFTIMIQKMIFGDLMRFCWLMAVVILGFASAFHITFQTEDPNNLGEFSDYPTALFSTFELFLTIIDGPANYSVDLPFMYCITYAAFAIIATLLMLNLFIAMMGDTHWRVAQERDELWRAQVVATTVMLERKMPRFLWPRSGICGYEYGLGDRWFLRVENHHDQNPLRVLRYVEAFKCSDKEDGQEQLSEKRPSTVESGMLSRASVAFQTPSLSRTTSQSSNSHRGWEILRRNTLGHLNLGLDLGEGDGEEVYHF

[3] = biological target: T3, TRPV2 (Rattus norvegicus, UniProt Q9WUD2, M607I); experiment: whole-cell patch clamp, inhibition of 2-APB-induced currents; format: cell-based
T3 construct: rat TRPV2 expressed in HEK293T cells
T3 sequence (Q9WUD2 1-761 M607I): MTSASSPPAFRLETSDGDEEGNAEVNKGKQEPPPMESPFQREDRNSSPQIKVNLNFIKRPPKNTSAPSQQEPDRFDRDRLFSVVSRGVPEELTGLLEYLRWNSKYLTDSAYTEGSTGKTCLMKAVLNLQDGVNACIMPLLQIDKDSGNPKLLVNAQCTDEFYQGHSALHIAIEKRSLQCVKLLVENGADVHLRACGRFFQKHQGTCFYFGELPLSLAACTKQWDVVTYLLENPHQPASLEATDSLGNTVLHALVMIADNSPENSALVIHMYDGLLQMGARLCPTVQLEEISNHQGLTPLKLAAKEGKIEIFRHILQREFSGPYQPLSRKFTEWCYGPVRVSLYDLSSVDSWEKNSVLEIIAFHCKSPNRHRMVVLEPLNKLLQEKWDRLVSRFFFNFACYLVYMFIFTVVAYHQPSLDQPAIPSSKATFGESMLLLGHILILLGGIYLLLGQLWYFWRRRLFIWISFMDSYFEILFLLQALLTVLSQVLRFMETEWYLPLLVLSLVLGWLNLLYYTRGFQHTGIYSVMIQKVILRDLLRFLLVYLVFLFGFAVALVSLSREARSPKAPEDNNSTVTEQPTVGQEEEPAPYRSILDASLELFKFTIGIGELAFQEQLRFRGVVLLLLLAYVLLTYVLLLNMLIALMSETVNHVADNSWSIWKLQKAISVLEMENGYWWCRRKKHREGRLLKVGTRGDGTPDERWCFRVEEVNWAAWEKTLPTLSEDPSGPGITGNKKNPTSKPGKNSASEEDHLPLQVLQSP

[4] = biological target: T4, TRPV2 (Rattus norvegicus, UniProt Q9WUD2, E609Q); experiment: as above; format: cell-based
T4 construct: rat TRPV2 expressed in HEK293T cells
T4 sequence (Q9WUD2 1-761 E609Q): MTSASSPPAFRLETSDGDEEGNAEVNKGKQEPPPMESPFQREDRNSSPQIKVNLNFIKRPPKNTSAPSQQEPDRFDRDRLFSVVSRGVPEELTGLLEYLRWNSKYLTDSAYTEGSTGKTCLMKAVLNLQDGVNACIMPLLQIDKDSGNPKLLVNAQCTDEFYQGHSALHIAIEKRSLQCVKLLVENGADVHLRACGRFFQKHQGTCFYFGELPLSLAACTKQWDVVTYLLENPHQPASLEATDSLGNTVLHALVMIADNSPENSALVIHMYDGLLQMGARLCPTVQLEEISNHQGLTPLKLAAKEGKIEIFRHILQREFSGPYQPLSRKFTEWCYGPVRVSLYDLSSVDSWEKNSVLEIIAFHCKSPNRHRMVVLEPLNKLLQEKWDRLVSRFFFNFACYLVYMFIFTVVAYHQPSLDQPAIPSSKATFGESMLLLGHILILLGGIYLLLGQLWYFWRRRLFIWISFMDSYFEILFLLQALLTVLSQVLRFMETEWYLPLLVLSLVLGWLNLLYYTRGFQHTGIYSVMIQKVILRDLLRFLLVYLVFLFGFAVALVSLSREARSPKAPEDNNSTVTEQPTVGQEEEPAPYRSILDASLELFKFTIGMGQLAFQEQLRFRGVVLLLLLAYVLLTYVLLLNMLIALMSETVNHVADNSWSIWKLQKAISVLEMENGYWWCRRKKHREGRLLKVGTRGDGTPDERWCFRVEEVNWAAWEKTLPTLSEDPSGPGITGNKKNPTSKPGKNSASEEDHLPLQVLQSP

[5] = biological target: T5, TRPV5 (Oryctolagus cuniculus, UniProt Q9XSM3, T539A); experiment: whole-cell patch clamp, % inhibition at […] RR ([…] at […]); format: cell-based
T5 construct: rabbit TRPV5 expressed in HEK293T cells
T5 sequence (Q9XSM3 1-730 T539A): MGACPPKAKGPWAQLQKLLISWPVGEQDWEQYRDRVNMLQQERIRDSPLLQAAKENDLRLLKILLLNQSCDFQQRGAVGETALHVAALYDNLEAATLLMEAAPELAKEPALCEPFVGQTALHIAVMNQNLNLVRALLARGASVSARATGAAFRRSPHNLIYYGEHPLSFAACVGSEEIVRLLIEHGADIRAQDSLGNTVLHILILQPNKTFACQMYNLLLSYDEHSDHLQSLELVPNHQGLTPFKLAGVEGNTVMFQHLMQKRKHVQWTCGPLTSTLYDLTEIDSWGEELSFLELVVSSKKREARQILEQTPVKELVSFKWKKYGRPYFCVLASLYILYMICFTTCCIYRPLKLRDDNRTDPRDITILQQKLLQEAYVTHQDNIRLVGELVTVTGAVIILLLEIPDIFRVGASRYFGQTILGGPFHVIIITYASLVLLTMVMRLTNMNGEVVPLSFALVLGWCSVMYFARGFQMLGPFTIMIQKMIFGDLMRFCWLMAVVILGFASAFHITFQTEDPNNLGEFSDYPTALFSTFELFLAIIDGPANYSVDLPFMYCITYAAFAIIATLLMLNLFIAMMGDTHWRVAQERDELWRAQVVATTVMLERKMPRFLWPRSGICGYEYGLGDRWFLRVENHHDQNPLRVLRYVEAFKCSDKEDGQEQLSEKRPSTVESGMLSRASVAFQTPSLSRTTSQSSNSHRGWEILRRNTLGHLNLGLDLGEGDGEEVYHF

[6] = biological target: T1, TRPV2; experiment: cryo-EM structure ([…] Å, with 2-APB); IC50 from whole-cell patch clamp in HEK293T cells; format: cell-based
[7] = biological target: the molecule itself; experiment: cryo-EM structure; channel tetramer in MSP2N2/soy polar lipid nanodiscs, 20 mM Hepes pH 8.0, 150 mM NaCl, 2 mM TCEP; with 1 mM ruthenium red, with or without activator (1 mM 2-APB for TRPV2; 400 uM diC8-PI(4,5)P2 for TRPV5)

With `NCCOB(c1ccccc1)c1ccccc1` [2-APB, 2-aminoethoxydiphenyl borate] the cryo-EM structural observation [1] was “clear three-lobed density for 2-APB coordinated by His521 and Arg539”.

With `N.N.N.N.N.N.N.N.N.N.N.N.N.N.[Cl-].[Cl-].[Cl-].[Cl-].[Cl-].[Cl-].[O-2].[O-2].[Ru+3].[Ru+3].[Ru+4]` [RR, ruthenium red] the IC50 [2] was 0.0137 ± 0.0044 µM, the IC50 [3] was 29 ± 5 µM and the IC50 [4] was 149 ± 111 µM. For the same molecule, the “% inhibition at 10 μM” value [5] was 94.5 ± 1.5 and the IC50 [6] was 0.159 ± 0.047 µM.

B1: wild-type rabbit TRPV5 (natural protein)
chain: MGACPPKAKGPWAQLQKLLISWPVGEQDWEQYRDRVNMLQQERIRDSPLLQAAKENDLRLLKILLLNQSCDFQQRGAVGETALHVAALYDNLEAATLLMEAAPELAKEPALCEPFVGQTALHIAVMNQNLNLVRALLARGASVSARATGAAFRRSPHNLIYYGEHPLSFAACVGSEEIVRLLIEHGADIRAQDSLGNTVLHILILQPNKTFACQMYNLLLSYDEHSDHLQSLELVPNHQGLTPFKLAGVEGNTVMFQHLMQKRKHVQWTCGPLTSTLYDLTEIDSWGEELSFLELVVSSKKREARQILEQTPVKELVSFKWKKYGRPYFCVLASLYILYMICFTTCCIYRPLKLRDDNRTDPRDITILQQKLLQEAYVTHQDNIRLVGELVTVTGAVIILLLEIPDIFRVGASRYFGQTILGGPFHVIIITYASLVLLTMVMRLTNMNGEVVPLSFALVLGWCSVMYFARGFQMLGPFTIMIQKMIFGDLMRFCWLMAVVILGFASAFHITFQTEDPNNLGEFSDYPTALFSTFELFLTIIDGPANYSVDLPFMYCITYAAFAIIATLLMLNLFIAMMGDTHWRVAQERDELWRAQVVATTVMLERKMPRFLWPRSGICGYEYGLGDRWFLRVENHHDQNPLRVLRYVEAFKCSDKEDGQEQLSEKRPSTVESGMLSRASVAFQTPSLSRTTSQSSNSHRGWEILRRNTLGHLNLGLDLGEGDGEEVYHF
notes: Transient receptor potential vanilloid 5 (TRPV5), rabbit, wild type; Homotetramer ('TRPV tetramer', C4 symmetry); No step that removes the 1D4 tag is described; also called rbTRPV5; TRPV5RR; source: S. cerevisiae BJ5457, purified (1D4 antibody beads, eluted with 1D4 peptide; reconstituted into MSP2N2 nanodiscs; SEC)
B1: binds [7].
